# Reference: patent US20220218736A1, “NEW THERAPY” (INDEX PHARMACEUTICALS AB, priority 2018, published 2022)
# Oligonucleotides are written 5' to 3', each unit as a sugar letter and its base; * is a phosphorothioate linkage, no mark a phosphodiester; rarer units and linkages stand in square brackets, end groups in braces. Plain capitals give the bases only. d = 2'-deoxy (DNA)
# Columns and labels:
# [1] = test system: patients with moderate-to-severe active UC; assay: Randomized, double-blind, placebo-controlled clinical trial of cobitolimod; symptomatic remission; assay type: in vivo, human
# Procedure: In this randomized, double-blind, placebo-controlled trial, 131 patients with moderate-to-severe active UC were randomized to receive two single doses of the oligonucleotide cobitolimod [30 mg] or placebo administered topically during lower GI endoscopy at baseline and Week 4. The primary endpoint was clinical remission, defined as Clinical Activity (Rachmilewitz) Index [CAI]≤4, at Week 12. Secondary endpoints included mucosal healing and symptomatic remission of key patient-reported outcomes [absence of blood in stool and weekly stool frequency <35].
# Eligible patients were adults with moderate to severely active ulcerative colitis with a Clinical Activity Index [CAI] of ≥9 and an endoscopic Mayo score of ≥2, despite treatment with glucocorticosteroids [GCS] [prednisolone] equivalent ≥10 mg/day] for ≥2 weeks prior to inclusion, and previously having failed or been intolerant to treatment with mesalazine ≥2.4 g/day for ≥4 weeks, GCS with at least 0.75 mg/kg as a starting dose, azathioprine or mercaptopurine for ≥3 months, and/or one adequate treatment course of a TNF-α inhibitor. Patients may have tried treatment with cyclosporine or tacrolimus before the trial. Four patients in the placebo group [9.3%] and 5 patients in the cobitolimod group [6.2%] had used cyclosporine prior to the study start, but not in the study.
# During the trial, patients could be taking sulfasalazine, aminosalicylates, or thiopurines, and should be on oral GCS at stable doses. Concurrent therapies with cyclosporine, tacrolimus or TNF-α inhibitors during the trial or in the 4 weeks before enrolment, or antibiotics or non-steroidal anti-inflammatory drugs [NSAIDs] in the 2 weeks before enrolment were not permitted.
# Eligible patients were randomized in a 2:1 ratio to receive administration of cobitolimod via endoscopy [30 mg] at Week 0 and 4, or matching placebo diluted in 50 mL of sterile water after adequate bowel cleaning for stool content. The application was done proximally to the site of mucosal inflammation, or in the transverse section of the colon in the event of extensive colitis, using a spray catheter during endoscopy. Patients were asked to remain recumbent for 2 h after administration. Patients were followed up with visits after 1, 4, 8, 12, 22, and 52 weeks. At Weeks 0, 4, and 12, patients underwent endoscopic evaluation and biopsies were taken from the most inflamed mucosal area. ICON [Texas, USA] produced the randomization code by a computer-generated procedure, which used the method of randomly permuted blocks. Oral GCS treatment was mandatory at a stable daily dose of >10 mg initiated at least 2 weeks prior to inclusion. Steroid tapering was done to a standard tapering schedule according to European Crohn's and Colitis Organisation [ECCO] guidelines when the patient had reached clinical remission, the earliest at Week 12.
# The primary endpoint was induction of clinical remission at Week 12, defined as a CAI score of ≤4. […] Secondary endpoints included mucosal healing [endoscopic Mayo sub-score ≤1, endoscopies not centrally read]; clinical remission at Weeks 1, 4, 8, 22 and 52; clinical remission and mucosal healing; symptomatic remission [defined as absence of blood in stool and weekly stool frequency of <35]; histological Geboes score at Week 4 and 12 as assessed by a single trial histopathologist; time to colectomy; and quality of life based on the inflammatory bowel disease questionnaire [IBDQ] and the 36-item short-form survey [SF36] score. Post hoc, the combined score for subjects who achieved both symptomatic remission and mucosal healing was defined.
# [2] = test system: patient with ulcerative colitis refractory to steroids and immunosuppressive therapies; assay: Compassionate use program, patient p12; colitis activity index (CAI) course; assay type: in vivo, human
# Excerpt: This example relates to unpublished experimental data that was collected as part of a compassionate use program. A diagnosis of ulcerative colitis was established based on clinical, endoscopic and histological features. Written consent was received for the patient and the treatment approved by the relevant local ethics committee.
# The patient was a person who was first diagnosed with ulcerative colitis 5 years previously and who had become refractory to steroids and immunosuppressive therapies (GCS, infliximab and natural IFN-β). In the form of an experimental add-on therapy, relapses were treated for 4 years with natural Interferon-beta (Fiblaferon). […] A severe relapse in January 2010 was treated with high doses of steroids in combination with azathioprine and 5-ASA without success. […] The treatment with a high dose of steroid in combination with Infliximab had some effect in reducing the CAI score from 14 to 9 in March 2010. However, the subject was still in a very active state of the disease. […]
# The patient received 3 doses of 30 mg cobitolimod diluted in 50 mL of sterile water at 4 week intervals as an add on to current therapies. Application of drug was performed during colonoscopy with the aid of a spraying catheter inserted through the colonoscopies biopsy channel and delivered approximately to the upper portion of the descending colon or to the transverse region.
# Depicted is the colitis activity index [CAI] against the time in months. […] 2011 when the treating physician last contacted all the patients to follow-up on the treatments.
# [3] = test system: chronic DSS-induced colitis; assay: Chronic DSS-induced mouse model of colitis; colon length and weight/length ratio; assay type: in vivo, C57BL/6 mice; details: Day 30; for colon-shortening effects of DSS (colon length): Days 4-28 every 4 days
# Excerpt: The objective of this study was to test the efficacy of cobitolimod as a maintenance therapy in the chronic DSS-induced mouse model of colitis.
# 37 male C57BL/6 mice were enrolled in the chronic DSS-induced colitis study and housed for a stabilization period of 5 days prior to the study. All animals were housed in HEPA-ventilated cages with sani-chips bedding. Domes and sterile cotton scratch pads were provided for enrichment. Fluorescent lighting was provided on a 12-hour cycle. Temperature and humidity were monitored and recorded daily and maintained to 20-23° C. temperature, and 30-70% relative humidity. 2018S 18% protein rodent maintenance diet was provided ad libitum.
# Cobitolimod was diluted in saline either to 125 μg/100μ1 (1.25 μg/μl, dose 1) or 500 μg/100 μl (5 μg/μl, dose 2) in the beginning of the experiment. The solution was aliquoted and kept at 4° C. for the duration of the experiment. At each administration day 100 μl was administered to the mice rectally. FTY-720 (S1P1 receptor inhibitor) was dissolved in dH2O and served as positive control. For a dose of 1 mg/kg, using an average body weight of 30 grams, the compound was prepared and 100 μL orally dosed daily to each animal.
# 9 week old mice received 2% DSS dissolved into autoclaved water ad libitum (Group 2-5, n=8 each per group) for 5 days, and were switched to autoclaved drinking water for the next five days. This cycle was repeated, alternating between DSS treatment and autoclaved water, every five days for a duration of 30 days in total. During each 5-Day DSS treatment phase, fresh 2% DSS was provided on the third day of the five-day cycle. Group 1 (n=5) served as a control (naïve mice) that received only autoclaved water ad libitum throughout the study. On Day 4, mice in Group 3 (n=8) were orally dosed with FTY-720 as positive control (Group 3, n=8) and continued daily dose until end of the study. Also starting on Study Day 4, animals were dosed with Vehicle (Group 2, […]), or with two different doses of cobitolimod (Group 4 and Group 5, n=8 per group) intrarectally. […] Groups 2, 4, and 5 were dosed again on Days 8, 12, 16, 20, 24, and 28.
# Body weight, stool consistency, stool blood, body condition score, and physical health were recorded on dosing days, and two days after each dosing day from at Day 0 through termination on Study Day 30. […] Animals that lost greater than 20% of their pre-treatment body weight were monitored and fed diet/hydro gel for 72 hrs. No animals were terminated due to prolonged body weight loss, or signs of pain and distress due to disease.
# The study was terminated on Day 30, and necropsy was performed on all animals. Spleens were weighed and then discarded. Colon length and weight was recorded, and the weight/length ratio calculated for each animal. […]
# [4] = second multi-dose regime, until March 2011
substance,measurement,setting,value
5′-G*G*A*ACAGTTCGTCCAT*G*G*C-3′ (SEQ ID NO:1) (DNA dG*dG*dA*dAdCdAdGdTdTdCdGdTdCdCdAdT*dG*dG*dC) [cobitolimod],"delta between active drug and placebo, symptomatic remission",[1]; week 4,18.1%
same,percentage of patients in symptomatic remission,"[1]; week 4, 30 mg at week 0, topically during endoscopy",32.1%
same,"delta between active drug and placebo, symptomatic remission",[1]; week 8,16.8%
same,percentage of patients in symptomatic remission,"[1]; week 8, 30 mg at weeks 0 and 4",28.4%
same,decrease in percentage of patients in remission,[1]; week 8 as compared to week 4,3.7%
same,"delta between active drug and placebo, symptomatic remission",[1]; week 12,11.8%
same,percentage of patients in symptomatic remission,"[1]; week 12, 30 mg at weeks 0 and 4, no dose at week 8",23.5%
same,decrease in percentage of patients in remission,[1]; week 12 as compared to week 8,4.9%
same,time patient kept in remission by repeat dosing,"[2]; first multi-dose regime (May, June and July)",3 months
same,time complete clinical remission was further maintained,"[2]; first multi-dose regime, after week 4, with last dose and steroid tapering",two
same,drop in the CAI score,"[2]; one week after first 30 mg dose, add-on to current therapies",4 points
same,time to clinical remission,[2]; second multi-dose regime started 25 Aug. 2010,≤ 4 weeks
same,time complete clinical remission was maintained,[2]; [4],5 months
same,time patient kept in remission by repeat dosing,[2]; [4],over five
same,remission status,"[2]; week 4 of first multi-dose regime, with continued steroid tapering",complete remission
same,remission status,[2]; week 8 of second multi-dose regime,complete clinical remission
same,colon-shortening effects of DSS (colon length),[3]; 125 μg intrarectally,significantly reduced
same,colonic weight/length ratio,[3]; 125 μg intrarectally,decreased
same,colon-shortening effects of DSS (colon length),[3]; 500 μg intrarectally,reduced
same,colonic weight/length ratio,[3]; 500 μg intrarectally,decreased
Infliximab: TNF-α inhibitor approved for the treatment of moderate to severe ulcerative colitis [reference compound],CAI score after treatment,"[2]; high dose of steroid in combination with Infliximab, reduced from 14, March 2010",9
same,adverse event after treatment,"[2]; one dose at the end of January, event in February 2010",severe salmonellosis with septicemia
